Source: patent US20230029496A1, “AMINO ACID ALTERNATIVE CURING SYSTEM” (THE TEXAS A&M UNIVERSITY SYSTEM, priority 2019, published 2023)
Several values for one entry are separate records, joined by “and”; a condition that tells them apart may be missing. Equal entries are not always repeated. Where two headings read alike, the source gives them in different places. Marks after values point to notes of the source that are not given here.

Assays:
[1] = system: NOS system; test: NO-heme, total heme, nitrosylation in test beef frankfurters (Example 12)
Experimental: The remaining nonmeat ingredients were added (except the antimicrobial) and chopped at 2000 rpm for one minute. Protecta (sodium acetate antimicrobial) was added and the emulsion chopped at 4000 rpm for one minute. The emulsion was evacuated and placed into a vacuum assisted stuffer where each test emulsion was stuffed and twist linked into 22 mm cellulose casings weighing 40 g each. The frankfurter links were hung on smokehouse trucks, placed into a commercial smokehouse and thermally processed to 160° F. (Table 18).
After thermal processing and chilling (40° F.), the casings were peeled from the frankfurters and were vacuum packaged and stored under refrigerated conditions for residual nitrite and nitrosylation. […] This was done to determine if the L-arginine could the NOS system to generate sufficient NO for cure color development and residual nitrite for antioxidant and antimicrobial effect.

[2] = system: nitric oxide synthase system
Experimental: After thermal processing and chilling according to USDA-FSIS Appendix A—Thermal processing (71° C.) and B—Cooling procedures (2° C.) guidelines, the frankfurters will be vacuum packaged and stored under refrigeration (2° C.) until analyzed at 0, 14, 28 and 56 days post manufacture.
The samples were analyzed for residual nitrite after deproteinization by sample preparation for amino acid analysis by HPLC.
Samples were vacuum packaged and refrigerated and evaluated on Day 1, 7, 14, 28 and 56 post manufacture. Differences between treatment and control samples will be determined using Tukey's Least Significant Difference procedure at P≤0.05 level. The experiment was replicated three times.

[3] = system: nitric oxide synthase system; conditions: beef; for Residual Nitrite, LSMean main effect of Temperature: L-arginine
Experimental: (§1) Fresh ground meat (beef, pork or poultry) was separated in ˜0.5 Kg batches and mixed with 2% salt and 10% added water. […] Each individual batch was mixed (1 min) in a food processor, removed for temperature and pH analyses and then placed into a jerky extruder tube. Approximately 25 g of sample were extruded into 50 mL centrifuge, then capped and labeled and placed into a controlled water batch and heated to a designated internal endpoint temperature (132, 158, or 165° F.).
(§2) Samples also contained 547 ppm sodium erythorbate, a cure accelerator (Phase I) and without sodium erythorbate (Phase II). Samples were placed into test tubes and heated in a controlled water bath to 132, 158 and 165° F. Samples were held in a 40° F. cooler for seven days then tested for residual nitrite. Residual nitrite was tested after deproteinization for amino acid analysis by HPLC. Determination of nitrite (UV/VIS Spectrophotometric Method) was used to detect any residual nitrite for best results in detecting minute amounts of nitrite. Residual nitrite levels were read in a 96 well plate reader at 540 nm.
(§3) Both phases of the experiment were designed as a factorial (concentration level and endpoint temperature) randomized complete block design with three replications. […] Least squares means were generated and Tukey's HSD used to determine significance at P≤0.05.

[4] = system: nitric oxide synthase system; conditions: pork, Phase I, with 547 ppm sodium erythorbate; for Residual Nitrite, LSMean main effect of Temperature: L-arginine
Experimental: as §1, §2, §3

[5] = 1000 ppm L-arginine with 547 ppm sodium erythorbate
[6] = 1000 ppm L-arginine, no cure accelerator
[7] = 5000 ppm L-arginine with 547 ppm sodium erythorbate
[8] = 5000 ppm L-arginine, no cure accelerator

## N=C(N)NCCC[C@H](N)C(=O)O [L-arginine]
[1]; [5]
  NO-Heme: 23.59^ab ppm
  Nitrosylation: 59.68^a %
  Total Heme: 40.35^a ppm
[1]; [6]
  NO-Heme: 17.79^b ppm
  Nitrosylation: 43.64^a %
  Total Heme: 41.71^a ppm
[1]; [7]
  NO-Heme: 28.32^a ppm
  Nitrosylation: 55.59^a %
  Total Heme: 51.00^a ppm
[1]; [8]
  NO-Heme: 27.94^a ppm
  Nitrosylation: 54.26^a %
  Total Heme: 52.81^a ppm
[1]; range over L-arginine frankfurters
  Cure color (nitrosylation): 43.64 to 59.68%
[2]; 3000 ppm L-arginine, Day 1
  residual sodium nitrite: 55.90
[2]; 3000 ppm L-arginine, Day 7
  residual sodium nitrite: 55.83
[2]; 3000 ppm L-arginine, Day 14
  residual sodium nitrite: 62.60
[2]; 3000 ppm L-arginine, Day 28
  residual sodium nitrite: 58.68
[2]; 4000 ppm L-arginine, Day 1
  residual sodium nitrite: 49.92
[2]; 4000 ppm L-arginine, Day 7
  residual sodium nitrite: 60.36
[2]; 4000 ppm L-arginine, Day 14
  residual sodium nitrite: 53.71
[2]; 4000 ppm L-arginine, Day 28
  residual sodium nitrite: 79.07
[2]; 5000 ppm L-arginine, Day 1
  residual sodium nitrite: 73.95
[2]; 5000 ppm L-arginine, Day 7
  residual sodium nitrite: 61.77
[2]; 5000 ppm L-arginine, Day 14
  residual sodium nitrite: 52.91
[2]; 5000 ppm L-arginine, Day 28
  residual sodium nitrite: 100.11
[3]; Phase I, with 547 ppm sodium erythorbate, 1000 ppm L-arginine, 132° F.
  Residual Nitrite, LSMean Conc × Temp: 85.37 ppm
[3]; Phase I, with 547 ppm sodium erythorbate, 1000 ppm L-arginine, 158° F.
  Residual Nitrite, LSMean Conc × Temp: 76.56 ppm
[3]; Phase I, with 547 ppm sodium erythorbate, 1000 ppm L-arginine, 165° F.
  Residual Nitrite, LSMean Conc × Temp: 65.51 ppm
[3]; Phase I, with 547 ppm sodium erythorbate, 2000 ppm L-arginine, 132° F.
  Residual Nitrite, LSMean Conc × Temp: 82.58 ppm
[3]; Phase I, with 547 ppm sodium erythorbate, 2000 ppm L-arginine, 158° F.
  Residual Nitrite, LSMean Conc × Temp: 66.33 ppm
[3]; Phase I, with 547 ppm sodium erythorbate, 2000 ppm L-arginine, 165° F.
  Residual Nitrite, LSMean Conc × Temp: 75.98 ppm
[3]; Phase I, with 547 ppm sodium erythorbate, 3000 ppm L-arginine, 132° F.
  Residual Nitrite, LSMean Conc × Temp: 78.11 ppm
[3]; Phase I, with 547 ppm sodium erythorbate, 3000 ppm L-arginine, 158° F.
  Residual Nitrite, LSMean Conc × Temp: 84.73 ppm
[3]; Phase I, with 547 ppm sodium erythorbate, 3000 ppm L-arginine, 165° F.
  Residual Nitrite, LSMean Conc × Temp: 57.42 ppm
[3]; Phase I, with 547 ppm sodium erythorbate, 4000 ppm L-arginine, 132° F.
  Residual Nitrite, LSMean Conc × Temp: 72.90 ppm
[3]; Phase I, with 547 ppm sodium erythorbate, 4000 ppm L-arginine, 158° F.
  Residual Nitrite, LSMean Conc × Temp: 83.35 ppm
[3]; Phase I, with 547 ppm sodium erythorbate, 4000 ppm L-arginine, 165° F.
  Residual Nitrite, LSMean Conc × Temp: 52.11 ppm
[3]; Phase I, with 547 ppm sodium erythorbate, 5000 ppm L-arginine, 132° F.
  Residual Nitrite, LSMean Conc × Temp: 57.48 ppm
[3]; Phase I, with 547 ppm sodium erythorbate, 5000 ppm L-arginine, 158° F.
  Residual Nitrite, LSMean Conc × Temp: 48.52 ppm
[3]; Phase I, with 547 ppm sodium erythorbate, 5000 ppm L-arginine, 165° F.
  Residual Nitrite, LSMean Conc × Temp: 38.80 ppm
[3]; Phase II, without 547 ppm sodium erythorbate, 1000 ppm L-arginine
  Residual Nitrite, LSMean main effect of Concentration: 107.03^a ppm and 107.03 ppm
[3]; Phase II, without 547 ppm sodium erythorbate, 1000 ppm L-arginine, 132° F.
  Residual Nitrite, LSMean Conc × Temp: 110.31^a ppm
[3]; Phase II, without 547 ppm sodium erythorbate, 1000 ppm L-arginine, 158° F.
  Residual Nitrite, LSMean Conc × Temp: 117.12^a ppm
[3]; Phase II, without 547 ppm sodium erythorbate, 1000 ppm L-arginine, 165° F.
  Residual Nitrite, LSMean Conc × Temp: 93.64^abc ppm
[3]; Phase II, without 547 ppm sodium erythorbate, 2000 ppm L-arginine
  Residual Nitrite, LSMean main effect of Concentration: 105.44^a ppm and 105.44 ppm
[3]; Phase II, without 547 ppm sodium erythorbate, 2000 ppm L-arginine, 132° F.
  Residual Nitrite, LSMean Conc × Temp: 101.25^abc ppm
[3]; Phase II, without 547 ppm sodium erythorbate, 2000 ppm L-arginine, 158° F.
  Residual Nitrite, LSMean Conc × Temp: 96.50^abc ppm
[3]; Phase II, without 547 ppm sodium erythorbate, 2000 ppm L-arginine, 165° F.
  Residual Nitrite, LSMean Conc × Temp: 118.58^a ppm
[3]; Phase II, without 547 ppm sodium erythorbate, 3000 ppm L-arginine
  Residual Nitrite, LSMean main effect of Concentration: 102.80^a ppm and 102.80 ppm
[3]; Phase II, without 547 ppm sodium erythorbate, 3000 ppm L-arginine, 132° F.
  Residual Nitrite, LSMean Conc × Temp: 107.12^ab ppm
[3]; Phase II, without 547 ppm sodium erythorbate, 3000 ppm L-arginine, 158° F.
  Residual Nitrite, LSMean Conc × Temp: 111.73^a ppm
[3]; Phase II, without 547 ppm sodium erythorbate, 3000 ppm L-arginine, 165° F.
  Residual Nitrite, LSMean Conc × Temp: 89.54^abc ppm
[3]; Phase II, without 547 ppm sodium erythorbate, 4000 ppm L-arginine
  Residual Nitrite, LSMean main effect of Concentration: 90.87^a ppm and 90.87 ppm
[3]; Phase II, without 547 ppm sodium erythorbate, 4000 ppm L-arginine, 132° F.
  Residual Nitrite, LSMean Conc × Temp: 101.77^ab ppm
[3]; Phase II, without 547 ppm sodium erythorbate, 4000 ppm L-arginine, 158° F.
  Residual Nitrite, LSMean Conc × Temp: 113.35^a ppm
[3]; Phase II, without 547 ppm sodium erythorbate, 4000 ppm L-arginine, 165° F.
  Residual Nitrite, LSMean Conc × Temp: 57.51^bcd ppm
[3]; Phase II, without 547 ppm sodium erythorbate, 5000 ppm L-arginine
  Residual Nitrite, LSMean main effect of Concentration: 40.23^b ppm and 40.23 ppm
[3]; Phase II, without 547 ppm sodium erythorbate, 5000 ppm L-arginine, 132° F.
  Residual Nitrite, LSMean Conc × Temp: 52.68^cd ppm
[3]; Phase II, without 547 ppm sodium erythorbate, 5000 ppm L-arginine, 158° F.
  Residual Nitrite, LSMean Conc × Temp: 37.81^d ppm
[3]; Phase II, without 547 ppm sodium erythorbate, 5000 ppm L-arginine, 165° F.
  Residual Nitrite, LSMean Conc × Temp: 30.19^d ppm
[3]; Phase II, without 547 ppm sodium erythorbate, 132° F.
  Residual Nitrite, LSMean main effect of Temperature: 95.63^a ppm and 95.63 ppm
[3]; Phase II, without 547 ppm sodium erythorbate, 158° F.
  Residual Nitrite, LSMean main effect of Temperature: 95.30^a ppm and 95.30 ppm
[3]; Phase II, without 547 ppm sodium erythorbate, 165° F.
  Residual Nitrite, LSMean main effect of Temperature: 77.89^b ppm and 77.89 ppm
[4]; 1000 ppm L-arginine
  Residual Nitrite, LSMean main effect of Concentration: 57.57 ppm
[4]; 1000 ppm L-arginine, 132° F.
  Residual Nitrite, LSMean Conc × Temp: 39.35 ppm
[4]; 1000 ppm L-arginine, 158° F.
  Residual Nitrite, LSMean Conc × Temp: 70.84 ppm
[4]; 1000 ppm L-arginine, 165° F.
  Residual Nitrite, LSMean Conc × Temp: 62.52 ppm
[4]; 2000 ppm L-arginine
  Residual Nitrite, LSMean main effect of Concentration: 68.91 ppm
[4]; 2000 ppm L-arginine, 132° F.
  Residual Nitrite, LSMean Conc × Temp: 80.08 ppm
[4]; 2000 ppm L-arginine, 158° F.
  Residual Nitrite, LSMean Conc × Temp: 66.63 ppm
[4]; 2000 ppm L-arginine, 165° F.
  Residual Nitrite, LSMean Conc × Temp: 60.04 ppm
[4]; 3000 ppm L-arginine
  Residual Nitrite, LSMean main effect of Concentration: 61.54 ppm
[4]; 3000 ppm L-arginine, 132° F.
  Residual Nitrite, LSMean Conc × Temp: 60.68 ppm
[4]; 3000 ppm L-arginine, 158° F.
  Residual Nitrite, LSMean Conc × Temp: 61.71 ppm
[4]; 3000 ppm L-arginine, 165° F.
  Residual Nitrite, LSMean Conc × Temp: 62.24 ppm
[4]; 4000 ppm L-arginine
  Residual Nitrite, LSMean main effect of Concentration: 52.07 ppm
[4]; 4000 ppm L-arginine, 132° F.
  Residual Nitrite, LSMean Conc × Temp: 48.21 ppm
[4]; 4000 ppm L-arginine, 158° F.
  Residual Nitrite, LSMean Conc × Temp: 52.12 ppm
[4]; 4000 ppm L-arginine, 165° F.
  Residual Nitrite, LSMean Conc × Temp: 55.87 ppm
[4]; 5000 ppm L-arginine
  Residual Nitrite, LSMean main effect of Concentration: 64.52 ppm
[4]; 5000 ppm L-arginine, 132° F.
  Residual Nitrite, LSMean Conc × Temp: 40.28 ppm
[4]; 5000 ppm L-arginine, 158° F.
  Residual Nitrite, LSMean Conc × Temp: 65.12 ppm
[4]; 5000 ppm L-arginine, 165° F.
  Residual Nitrite, LSMean Conc × Temp: 88.16 ppm
[4]; 132° F.
  Residual Nitrite, LSMean main effect of Temperature: 53.72 ppm
[4]; 158° F.
  Residual Nitrite, LSMean main effect of Temperature: 63.29 ppm
[4]; 165° F.
  Residual Nitrite, LSMean main effect of Temperature: 65.72 ppm
